In patent US9433596B2, “Pharmaceutical composition comprising N-acetyl-L-cysteine or its derivatives for treating anxiety disorder” (SNU R&DB FOUNDATION, priority 2010, dated 2016):

Tests used:
[1] = cited from earlier work
Sprague-Dawley Rats [2] = assay: Fear memory renewal test, NAC administered during extinction training (exposure therapy); type: in vivo; conditions: NAC 200 mg/kg peritoneally once a day, days 3 to 5 after conditioning, 2.5 hours before exposure therapy, renewal tests on day 12 and day 21, vs saline control
Method: Sprague-Dawley Rats (8-9 weeks old, from Samtaco, Korea) were maintained with free access to water and food with 12 hour dark/light cycles (lights off at 09:00 hrs). Group of three to six animals were used for each experiment. (26 in total) For fear conditioning, the rats were presented with a tone (2.8 kHz, 85 dB) co-terminating with an electrical shock (1.0 mA, 1 s) three times at an interval of 100 sec. The rats were returned to the cage 1 minute after the last shock has been applied. Three days after the conditioning, the exposure therapy was done in a chamber distinct from the conditioning chamber for both extinction training and tone tests. 10 tones were presented at an interval of 100 sec without shocks, during which the freezing responses were measured to determine the reduction of fear memories. Unpaired, two-tailed T-test was used to analyze the results. […] The negative control was only received physiological saline. The renewal test was done on day 12 after the conditioning was completed. The same chamber and place as it was used for the fear conditioning were used for the renewal. […] The fear memory recalled was determined by measuring the freezing response as described before (Kim et al., 2007, PNAS 104 (52): 20955-960). The freezing was defined as immobility except for respiratory movements and was quantified by trained observers who were blind to the experimental groups. […]

[3] = general statement, no test described; cited from earlier work
Sprague-Dawley Rats [4] = assay: Fear memory renewal test, NAC administered one day before the renewal test; type: in vivo; conditions: NAC 200 mg/kg peritoneally on the 7th day after 4 days of extinction training, result on the 9th day after fear conditioning, vs control
Method: Sprague-Dawley Rats (8-9 weeks old, from Samtaco, Korea) were maintained with free access to water and food with 12 hour dark/light cycles (lights off at 09:00 hrs). Group of three to six animals were used for each experiment. (26 in total) For fear conditioning, the rats were presented with a tone (2.8 kHz, 85 dB) co-terminating with an electrical shock (1.0 mA, 1 s) three times at an interval of 100 sec. The rats were returned to the cage 1 minute after the last shock has been applied. Three days after the conditioning, the exposure therapy was done in a chamber distinct from the conditioning chamber for both extinction training and tone tests. 10 tones were presented at an interval of 100 sec without shocks, during which the freezing responses were measured to determine the reduction of fear memories. Unpaired, two-tailed T-test was used to analyze the results. The renewal test was done on day 12 after the conditioning was completed. The same chamber and place as it was used for the fear conditioning were used for the renewal. The rats with the extinction training were placed in the conditioning chamber and were left undisturbed for 10 minutes. Then the fear memory was recalled by presenting the rats with a tone for 30 sec. […] The freezing was defined as immobility except for respiratory movements and was quantified by trained observers who were blind to the experimental groups. […]

Sprague-Dawley Rats [5] = assay: Fear memory renewal test, NAC administered immediately before the renewal test; type: in vivo; conditions: NAC 200 mg/kg peritoneally 2.5 hours before the renewal test on the 7th and 8th day, result on the 8th day after fear conditioning, vs control
Method: Sprague-Dawley Rats (8-9 weeks old, from Samtaco, Korea) were maintained with free access to water and food with 12 hour dark/light cycles (lights off at 09:00 hrs). Group of three to six animals were used for each experiment. (26 in total) For fear conditioning, the rats were presented with a tone (2.8 kHz, 85 dB) co-terminating with an electrical shock (1.0 mA, 1 s) three times at an interval of 100 sec. The rats were returned to the cage 1 minute after the last shock has been applied. Three days after the conditioning, the exposure therapy was done in a chamber distinct from the conditioning chamber for both extinction training and tone tests. 10 tones were presented at an interval of 100 sec without shocks, during which the freezing responses were measured to determine the reduction of fear memories. Unpaired, two-tailed T-test was used to analyze the results. The renewal test was done on day 12 after the conditioning was completed. The same chamber and place as it was used for the fear conditioning were used for the renewal. […] The fear memory recalled was determined by measuring the freezing response as described before (Kim et al., 2007, PNAS 104 (52): 20955-960). The freezing was defined as immobility except for respiratory movements and was quantified by trained observers who were blind to the experimental groups. […]

Structure (SMILES): CC(=O)N[C@@H](CS)C(=O)O [NAC, N-acetyl-L-cysteine]
- pKa [1]: 3.24
- renewal of the fear memory (freezing response) (Sprague-Dawley Rats [2]; FIG. 2): the renewal of the fear memory was blocked
- renewal of the fear memory (freezing response) (Sprague-Dawley Rats [2]; FIG. 2, listed as N-Acetyl-L-cysteine): the return of fear-memories was prevented and the effect was long-lasted
- blood-brain barrier penetration [3]: penetrate a blood-brain barrier
- renewal of the fear memory (freezing response) (Sprague-Dawley Rats [4]; FIG. 4): the renewal of the fear memory was blocked
- renewal of the fear memory (freezing response) (Sprague-Dawley Rats [4]; FIG. 4, listed as N-Acetyl-L-cysteine): the return of fear-memories was prevented
- renewal of the fear memory (freezing response) (Sprague-Dawley Rats [5]; FIG. 6): the renewal of the fear memory was blocked
- renewal of the fear memory (freezing response) (Sprague-Dawley Rats [5]; FIG. 6, listed as N-Acetyl-L-cysteine): prevented the return of fear-memories
